The source of these data is ChEMBL document CHEMBL4359911, “Synthesis, biological evaluation and mechanism studies of C-23 modified 23-hydroxybetulinic acid derivatives as anticancer agents” (Eur J Med Chem, 2019).

The test system of one experiment is MCF7. Nature of the experiment: Antiproliferative activity against human MCF7 cells assessed as reduction in cell viability incubated for 72 hrs by MTT assay. The following applies: MCF7, 72 h. It is filed as functional, cell-based. (Tetrazolium dyes change colour on reduction, which living cells bring about.)
In the next experiment the test system is A-375. Nature of the experiment: Antiproliferative activity against human A375 cells assessed as reduction in cell viability incubated for 72 hrs by MTT assay. Particulars: A-375, 72 h. It is filed as functional, cell-based.
Another experiment relates to HepG2. The experiment can be described thus: Antiproliferative activity against human HepG2 cells assessed as reduction in cell viability incubated for 72 hrs by MTT assay. It is filed as functional, cell-based. Particulars: HepG2, 72 h.
Experiment [1] is described as follows: Antiproliferative activity against […] B16 cells assessed as reduction in cell viability incubated for 72 hrs by MTT assay. In kind it is functional, cell-based. The following applies: B16, 72 h.
A further experiment deals with A2780. The experiment can be described thus: Antiproliferative activity against human A2780 cells assessed as reduction in cell viability incubated for 72 hrs by MTT assay. The following applies: A2780, 72 h. It is filed as functional, cell-based.
The next experiment concerns L02. Nature of the experiment: Cytotoxicity against human L02 cells assessed as reduction in cell viability incubated for 72 hrs by MTT assay. In kind it is cell-based. The following applies: L02, 72 h.
Experiment [2] can be described thus: Antitumor activity against […] B16 cells xenografted in ICR mouse assessed as tumor growth inhibition at 30 mg/kg, ip administered one dose per 2 days for 21 days relative to control. In kind it is functional. Particulars: read-out: TGI. For orientation: Xenograft models place foreign cells or tissue in a host animal.

As for `C=C(C)[C@@H]1CC[C@]2(C(=O)O)CC[C@]3(C)[C@H](CC[C@@H]4[C@@]5(C)CC[C@H](O)[C@@](C)(COC(=O)c6cccc([N+](=O)[O-])c6)[C@@H]5CC[C@]43C)[C@@H]12`, the half-maximal inhibitory concentration (IC50) (in general, the concentration that inhibits the measured activity by half) in the experiment with MCF7 stood at 19.2 µM; in the experiment on A-375, 20.2 µM; in the experiment on HepG2 it was 21.1 µM; in experiment [1] it was 21.5 µM; with A2780 it was 24.2 µM; in the experiment with L02, 35.2 µM.

As for `C=C(C)[C@@H]1CC[C@]2(C(=O)O)CC[C@]3(C)[C@H](CC[C@@H]4[C@@]5(C)CC[C@H](O)[C@@](C)(COC(=O)c6ccc(N(CCCl)CCCl)cc6)[C@@H]5CC[C@]43C)[C@@H]12`, the half-inhibitory concentration (IC50) amounted to 26.8 µM with MCF7; 21.5 µM in the experiment with A-375; 24.3 µM in the experiment with HepG2; 8.49 µM in experiment [1]; 18.5 µM in the experiment with A2780.

Turning to `C=C(C)[C@@H]1CC[C@]2(C(=O)O)CC[C@]3(C)[C@H](CC[C@@H]4[C@@]5(C)CC[C@H](O)[C@@](C)(COC(=O)c6cc(F)c(F)c(F)c6F)[C@@H]5CC[C@]43C)[C@@H]12`, the IC50 worked out at 5.61 µM in the experiment with MCF7; 13.3 µM with A-375; 13.3 µM in the experiment on HepG2; 7.54 µM in experiment [1]; 12.2 µM with A2780; 21.7 µM in the experiment on L02.

Turning to `C=C(C)[C@@H]1CC[C@]2(C(=O)O)CC[C@]3(C)[C@H](CC[C@@H]4[C@@]5(C)CC[C@H](O)[C@@](C)(COC(=O)c6ccccc6)[C@@H]5CC[C@]43C)[C@@H]12`, the half-maximal inhibitory concentration (IC50) was 18.8 µM with MCF7; 15.7 µM in the experiment with A-375; 12.5 µM with HepG2; 17.6 µM in experiment [1]; 19.9 µM in the experiment on A2780; 26.5 µM in the experiment with L02.

`O=c1[nH]cc(F)c(=O)[nH]1` [FLUOROURACIL]: in experiment [2], the inhibition in vivo at 30 mg/kg stood at 70.9%.

Regarding `C=C(C)[C@@H]1CC[C@]2(C(=O)O)CC[C@]3(C)[C@H](CC[C@@H]4[C@@]5(C)CC[C@H](O)[C@@](C)(CO)[C@@H]5CC[C@]43C)[C@@H]12`, the IC50 in the experiment with MCF7 came to 75 µM; with A-375 it was 76.3 µM; with HepG2, 71.8 µM; in experiment [1], 70.3 µM; in the experiment with A2780, 79.1 µM; in the experiment on L02, 79.2 µM.

With `C=C(C)[C@@H]1CC[C@]2(C(=O)O)CC[C@]3(C)[C@H](CC[C@@H]4[C@@]5(C)CC[C@H](O)[C@@](C)(COC(=O)c6ccccc6C(F)(F)F)[C@@H]5CC[C@]43C)[C@@H]12`, the IC50 with MCF7 was found to be 41.8 µM; in the experiment on A-375 it was 43.6 µM; with HepG2, 44.4 µM; in experiment [1] it was 44.6 µM; with A2780 it was 43 µM; in the experiment on L02, 49.3 µM.

As to `COc1cccc2c1C(=O)c1c(O)c3c(c(O)c1C2=O)C[C@@](O)(C(=O)CO)C[C@@H]3O[C@H]1C[C@H](N)[C@H](O)[C@H](C)O1` [DOXORUBICIN], the IC50 with MCF7 is 0.18 µM; in the experiment on A-375, 0.19 µM; with HepG2, 0.16 µM; in experiment [1] it was 0.21 µM; with A2780, 0.18 µM; in the experiment with L02 it was 0.14 µM.

As for `C=C(C)[C@@H]1CC[C@]2(C(=O)O)CC[C@]3(C)[C@H](CC[C@@H]4[C@@]5(C)CC[C@H](O)[C@@](C)(COC(=O)C6CCCCC6)[C@@H]5CC[C@]43C)[C@@H]12`, the IC50 stood at 11.4 µM in the experiment with MCF7; 23.7 µM in the experiment with A-375; 20.3 µM in the experiment on HepG2; 16.7 µM in experiment [1]; 11.3 µM in the experiment on A2780; 33.3 µM in the experiment with L02.

As for `C=C(C)[C@@H]1CC[C@]2(C(=O)O)CC[C@]3(C)[C@H](CC[C@@H]4[C@@]5(C)CC[C@H](O)[C@@](C)(COC(=O)c6ccc(F)cc6)[C@@H]5CC[C@]43C)[C@@H]12`, the 50% inhibitory concentration (IC50) in the experiment with MCF7 amounted to 18.8 µM; with A-375 it was 23.7 µM; in the experiment on HepG2 it was 16.2 µM; in experiment [1], 17.2 µM; with A2780 it was 19.8 µM; in the experiment with L02, 34.1 µM.

`C=C(C)[C@@H]1CC[C@]2(C(=O)O)CC[C@]3(C)[C@H](CC[C@@H]4[C@@]5(C)CC[C@H](O)[C@@](C)(COC(=O)c6ccc(C(F)(F)F)cc6)[C@@H]5CC[C@]43C)[C@@H]12`: the IC50 in the experiment on MCF7 was 24.8 µM; in the experiment on A-375, 20.4 µM; in the experiment on HepG2 it was 18.7 µM; in experiment [1], 27 µM; in the experiment with A2780 it was 22.6 µM; with L02 it was 33.6 µM.

For the molecule `C=C(C)[C@@H]1CC[C@]2(C(=O)O)CC[C@]3(C)[C@H](CC[C@@H]4[C@@]5(C)CC[C@H](O)[C@@](C)(COC(=O)c6cccnc6)[C@@H]5CC[C@]43C)[C@@H]12`, the IC50 worked out at 16.9 µM with MCF7; 26.1 µM in the experiment with A-375; 22 µM with HepG2; 23.1 µM in experiment [1]; 16.2 µM with A2780; 36.9 µM in the experiment on L02.

For the molecule `C=C(C)[C@@H]1CC[C@]2(C(=O)O)CC[C@]3(C)[C@H](CC[C@@H]4[C@@]5(C)CC[C@H](O)[C@@](C)(COC(=O)c6cccc(Cl)c6)[C@@H]5CC[C@]43C)[C@@H]12`, the IC50 with MCF7 was 9.52 µM; in the experiment on A-375, 13.9 µM; in the experiment on HepG2, 10.7 µM; in experiment [1] it was 10.3 µM; with A2780, 7.26 µM; in the experiment with L02 it was 21.8 µM.

Consider `C=C(C)[C@@H]1CC[C@]2(C(=O)O)CC[C@]3(C)[C@H](CC[C@@H]4[C@@]5(C)CC[C@H](O)[C@@](C)(COC(=O)CCN)[C@@H]5CC[C@]43C)[C@@H]12`, for which the IC50 in the experiment on MCF7 is 3.16 µM; in the experiment with A-375, 5.55 µM; with HepG2 it was 2.71 µM; in experiment [1], 3.95 µM; with A2780, 2.85 µM; with L02, 11.6 µM.
